We go through one molecule from patent US20200165194A1, “ADDITIVE COMPOSITION FOR CULTURE MEDIUM, ADDITIVE COMPOUND FOR CULTURE MEDIUM, AND METHOD FOR CULTURE OF CELLS OR TISSUE USING SAME” (NISSAN CHEMICAL CORPORATION, priority 2017, published 2020).

The experiment concerns Canine kidney renal tubule epithelial cells (MDCK cells). Description: MDCK cells-1: Cyst formation on Matrigel, Cyst area by fluorescence microscope (Experimental Example 7). The experiment is classed as cell-based. The settings on record: 10 μM, 7 days. How it is done:
Canine kidney renal tubule epithelial cells (MDCK cells, manufactured by DS PHARMA BIO MEDICAL) were precultured in EMEM medium containing 10% FBS and 1% NEAA. Cold Matrigel (registered trade mark) Matrix GFR (manufactured by Corning) was spread on a 24-well plate by 50 μL and fixed by incubating at 37° C. for 15 min. The aforementioned MDCK cells were suspended in a medium at a concentration of 20000 cells/mL, cold Matrigel (registered trade mark) Matrix GFR was added at […] and seeded at 1 mL/well. […] As a control (compound no-addition), DMSO was added at a final concentration of 0.1%. Seven days later, the cells were washed with PBS (1 mL/well), 4% paraformaldehyde/PBS (manufactured by Wako Pure Chemical Industries, Ltd.) was added (1 mL/well) and fixed at room temperature for 20 min. Thereafter, the supernatant was removed, IF buffer (0.2% Triton X-100 (manufactured by Sigma-Aldrich), 0.05% Tween 20 (manufactured by Sigma-Aldrich)-containing PBS) were added at 1 mL/well, stood for 30 min and removed. […] After washing 3 times every 5 min with IF buffer, VECTASHIELD Mounting Medium with DAPI (manufactured by Vector Laboratories) was added dropwise, and the cells were observed and analyzed with a fluorescence microscope (ArrayScan, manufactured by Thermo Fisher Scientific).

SMILES strings stand for the structures.

As to `CCC(=NNC(=O)C(CC)Nc1ccccc1)c1ccc(O)c(C)c1O` (centres unmarked) [k-1:H-7], the “increase of the area per one Cyst” value (Control as 100) is not below 20%. The “Cyst area (relative value)” value (control = 100) is reported as 124.
